Data from PubChem BioAssay (NCI).
Several values for one entry are separate records, joined by “and”; a condition that tells them apart may be missing. Identical values can stand only once.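 Test compounds were applied to cells in 96-well plates for 48 hours at 5 doses. The concentration for 50% growth inhibition is given as GI50. TGI denotes the concentration required for complete inhibition of growth.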

Key:
Assay in all cases: inhibition of tumour cell growth, NCI panel, 48 h
[1] = tested on: HCC-2998 colon
[2] = tested on: SNB-19 CNS
[3] = tested on: A498 renal
[4] = tested on: RPMI-8226 leukemia
[5] = tested on: SF-268 CNS
[6] = tested on: NCI-H522 lung
[7] = tested on: HT29 colon
[8] = tested on: UACC-62 melanoma
[9] = tested on: IGROV1 ovarian
[10] = tested on: OVCAR-5 ovarian

| SMILES | GI50 [1] | TGI [1] | GI50 [2] | TGI [2] | GI50 [3] | TGI [3] | GI50 [4] | TGI [4] | GI50 [5] | TGI [5] | GI50 [6] | TGI [6] [µM] | GI50 [7] | TGI [7] | GI50 [8] | TGI [8] | GI50 [9] [µM] | TGI [9] | GI50 [10] | TGI [10] |
| --- | --- | --- | --- | --- | --- | --- | --- | --- | --- | --- | --- | --- | --- | --- | --- | --- | --- | --- | --- | --- |
| Oc1c(CN2CCC(N3CCCCC3)CC2)cc(Cc2cc(CN3CCC(N4CCCCC4)CC3)c(O)c3ncccc23)c2cccnc12 | 1.19 µM | 6.15 µM | 2.65 µM | 22.5 µM | 5.02 µM | 18 µM | 1.86 µM | 7.22 µM | 0.537 µM | 13.8 µM | 1.39 µM | 3.63 | 1.07 µM | 5.39 µM | 0.609 µM | 5.17 µM | 1.16 | 17.3 µM | 2.74 µM | 20.3 µM |
| COc1cc([N+](=O)[O-])cc2c3c(n(C)c12)[C@@]1(C)CCC2c4ccc(OCc5ccccc5)cc4CCC2C1C3 (some centres undefined) | 47.9 µM | > 100 µM | 46.5 µM | > 100 µM | 35.6 µM | > 100 µM | 81.8 µM | > 100 µM | > 100 µM | > 100 µM | 53.6 µM | > 100 | 17.7 µM | 42.8 µM | > 100 µM | > 100 µM | > 100 | > 100 µM | > 100 µM | > 100 µM |
| N#Cc1cc([N+](=O)[O-])ccc1NC(=O)C(=O)Nc1n[nH]c(N)n1 |  | > 100 µM |  | > 100 µM |  | > 100 µM |  | > 100 µM |  | > 100 µM |  | > 100 |  | > 100 µM |  | > 100 µM |  | > 100 µM |  | > 100 µM |
| CC[C@@H]1C(=O)N(C)c2cnc(Nc3ccc(C(=O)NC4CCN(C)CC4)cc3OC)nc2N1C1CCCC1 | 0.00426 µM and < 0.01 µM | 1.42 µM and 0.506 µM | 0.0058 µM and < 0.01 µM | > 10 µM and 20.3 µM | 0.0245 µM and 0.0246 µM | 0.146 µM and 0.368 µM | 0.0198 µM and 0.0395 µM | 1.69 µM and 1.91 µM | 0.0156 µM and < 0.01 µM | > 10 µM and 7.8 µM | 0.00294 µM and < 0.01 µM | < 0.0561 | 0.0036 µM and < 0.01 µM | > 4.71 µM and 10.3 µM | 0.0101 µM and 0.0252 µM | > 4.41 µM and 4.21 µM |  | 4.15 µM and 11.8 µM | 0.00408 µM and < 0.01 µM | > 10 µM and 11.8 µM |
| CC[C@@H]1CN(C)[C@H]2Cc3c([nH]c4ccccc34)C(=O)C[C@H]1C2C(=O)OC (some centres undefined) |  | > 100 µM |  | > 100 µM |  | > 100 µM |  | > 100 µM |  | > 100 µM |  | > 100 |  | > 100 µM |  | > 100 µM |  | > 100 µM |  | > 100 µM |
| CC(C)(C)C1C=C(Sc2ccccc2)C(=O)O1 (centres undefined) |  | > 100 µM |  | > 100 µM |  | > 100 µM |  | > 100 µM |  | > 100 µM |  | 87.8 |  | > 100 µM |  | > 100 µM |  | > 100 µM |  | > 100 µM |
| FC(F)(F)c1cccc(Nc2nccc(-c3cnn4nc(-c5ccccc5)ccc34)n2)c1 | 23.5 µM | > 25 µM | > 17.1 µM | > 25 µM | > 14 µM | > 25 µM | 12.9 µM | > 25 µM | 10.3 µM | > 19.2 µM | 6.88 µM | > 18.5 | 6.88 µM | > 18.4 µM | 14.4 µM | > 25 µM | 11.4 | > 25 µM | > 22.9 µM | > 25 µM |
| C=CC(=O)N1CC2(CCN(c3nc(OC4CCN(CCCOC)CC4)nc4c(OCC(F)(F)F)c(-c5c(C)ccc6[nH]ncc56)c(C5CC5)cc34)CC2)C1 | 2 µM | 4.64 µM | 6.89 µM | 20.1 µM | 15.4 µM | 29.5 µM | 2.14 µM | 5.81 µM | 3.75 µM | 13.6 µM | 1.78 µM | 3.57 | 2.28 µM | 5.83 µM | 5.27 µM | 18.9 µM | 6.88 | 21.3 µM | 5.31 µM | 18 µM |
| Oc1ccc(CN2CCC(N3CCCCC3)CC2)c2cccnc12 | 64.2 µM | > 100 µM | 21.6 µM | > 100 µM | > 100 µM | > 100 µM | 6.33 µM | > 100 µM | 7.06 µM | > 100 µM | 3.43 µM | 43.9 | 93.7 µM | > 100 µM | 4.87 µM | 67.5 µM | 23.4 | > 100 µM | 45.4 µM | > 100 µM |
| COc1ccc(-c2cc(=O)c3ccc(O)cc3o2)cc1OC |  | > 100 µM |  | > 100 µM |  | > 100 µM |  | > 100 µM |  | > 100 µM |  | > 100 |  | > 100 µM |  | > 100 µM |  | > 100 µM |  | > 100 µM |
| CC[C@@]1(O)C(=O)OCc2c1cc1n(c2=O)Cc2c-1nc1cc3c(cc1c2CCl)OCO3 | 0.365 µM | 8.58 µM | < 0.018 µM | > 100 µM | < 0.0151 µM | 0.753 µM | < 0.01 µM | 0.309 µM | < 0.01 µM | 4.62 µM | < 0.01 µM | 1.36 | 0.0271 µM | > 22.3 µM | < 0.01 µM | 0.205 µM | 0.139 | 5.75 µM | 0.0593 µM | 2.12 µM |
| C[C@@H]1OC(O)[C@@H](F)[C@H](O)[C@@H]1O (some centres undefined) | > 100 µM | > 100 µM | > 100 µM | > 100 µM | > 100 µM | > 100 µM | > 100 µM | > 100 µM | > 100 µM | > 100 µM | > 100 µM | > 100 | > 100 µM | > 100 µM | > 100 µM | > 100 µM | > 100 | > 100 µM | > 100 µM | > 100 µM |
| CCN(CC)c1ccc(/C=C/c2ccc3cc(C)ccc3[n+]2CC)cc1 | 0.197 µM | 15.3 µM | 0.0621 µM | 13.4 µM | 0.149 µM | 1.78 µM | 0.029 µM | 3.66 µM | 0.406 µM | 16.5 µM | 0.0835 µM | 2.55 | 0.0771 µM | 2.19 µM | 0.152 µM | 1.37 µM | 0.201 | 18.1 µM | 0.309 µM | 16.8 µM |
| CC(=O)OCCN1c2ccccc2Sc2cnccc21 |  | > 10 µM |  | > 10 µM |  | > 10 µM |  | > 10 µM |  | > 10 µM |  | > 10 |  | > 10 µM |  | > 10 µM |  | > 10 µM |  | > 10 µM |
